Assay results as given in publication PMC6149679 (2017).

How the values were obtained:
[1] = test system: poly AH+-poly AH+ (poly A at pH 5) (RNA, polymer, adenine protonated at pH 5) A; assay: fluorescence titration (λexc 355 nm); details: Na+ (sodium cacodylate, I = 0.05 M), emission of 2 did not change
[2] = test system: poly A–poly U (RNA, polymer) A/U; assay: thermal denaturation, absorbance at 260 nm; details: Na+ (sodium cacodylate, I = 0.05 M); pH 7.0; no stabilisation (error ± 0.5 °C); same at pH 5
[3] = test system: poly A (RNA, polymer) A; assay: fluorescence titration (λexc 355 nm), Scatchard; details: Na+ (sodium cacodylate, I = 0.05 M); pH 7.0; n fixed at 0.2; polynucleotide as phosphates; per base
[4] = test system: poly A–poly U (RNA, polymer) A/U; assay: fluorescence titration (λexc 355 nm); details: Na+ (sodium cacodylate, I = 0.05 M); pH 7.0; no emission change
[5] = test system: poly A–poly U (RNA, polymer) A/U; assay: fluorescence titration (λexc 355 nm), Scatchard; details: Na+ (sodium cacodylate, I = 0.05 M); pH 5.0; n fixed at 0.2; polynucleotide as phosphates; per base

COC(=O)C(Cc1cc2cn(CCN3C(=O)c4ccccc4C3=O)c(=O)nc2[nH]1)NC(=O)CNC(=O)[C@@H](CCCCN)NC(=O)c1ccc(C(=O)NC(=N)N)[nH]1 (stereo partly shown)
binding [1]: no | binding [2]: no | log Ks [3]: 4.1 | binding [4]: no | log Ks [5]: 3.5

COC(=O)C(Cc1cc2cn(CCN3C(=O)c4ccccc4C3=O)c(=O)nc2[nH]1)NC(=O)CNC(=O)[C@H](N)CCCCNC(=O)c1ccc(C(=O)NC(=N)N)[nH]1 (stereo partly shown)
binding [2]: no | binding [4]: no
